Counter-ions that a name gives are not always drawn.

The term IC50 denotes the concentration that gives 50% inhibition.

Sequence of IRAK4 (Q9NWZ3 whole entry): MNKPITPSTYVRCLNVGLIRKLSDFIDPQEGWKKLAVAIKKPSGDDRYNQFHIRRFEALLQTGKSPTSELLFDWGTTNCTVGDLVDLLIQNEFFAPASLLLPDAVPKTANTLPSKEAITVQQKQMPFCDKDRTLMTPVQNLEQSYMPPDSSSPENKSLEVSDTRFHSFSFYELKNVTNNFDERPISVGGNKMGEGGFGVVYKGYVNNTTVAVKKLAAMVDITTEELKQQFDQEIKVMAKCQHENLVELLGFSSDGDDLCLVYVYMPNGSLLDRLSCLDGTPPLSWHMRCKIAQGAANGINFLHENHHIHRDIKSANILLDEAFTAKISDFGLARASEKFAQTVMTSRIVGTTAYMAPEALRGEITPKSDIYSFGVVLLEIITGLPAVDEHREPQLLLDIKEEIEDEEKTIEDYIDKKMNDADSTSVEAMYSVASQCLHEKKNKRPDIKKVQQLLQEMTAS

This assay concerns the target IRAK4 (Homo sapiens (Human), UniProt Q9NWZ3). In words: IRAK4 Kinase Assay. The format is biochemical. The settings on record: IMAP fluorescence polarization, 0.5 nM GST tagged IRAK4, 100 μM ATP, 30 minutes at 25° C.; read-out: IRAK4 IC50.
Experimental: The kinase activity of IRAK4 is determined by its ability to catalyze the phosphorylation of a fluorescent polypeptide substrate. The extent of phosphorylation is measured using the IMAP technology (Molecular Devices) where the phosphorylated fluorescent substrate binds to the large M(III)-based nanoparticles which reduces the rotational speed of the substrate and thus increases its fluorescent polarization (FP).
20 μL reaction mixture contains 10 mM TriHCl, pH 7.2, 0.5 nM GST tagged IRAK4 (SignalChem), 100 nM fluorescent peptide substrate (RP7030, Molecular Devices), 100 μM ATP, 1 mM DDT, 1 mM MgCl2, and 0.01% Tween 20. The reaction is initiated by the addition of ATP. After incubation for 30 minutes at 25° C., 60 μL of Progressive IMAP Reagent (Molecular Devices) is added to stop the reaction. Change in RP7030's FP is determined by a FP reader (Analyst HT, LJL BioSystems).
As to `Cn1cc(NC(=O)c2cnn3ccc(N4C5CCC6NC5CCC64)nc23)c(C(F)(F)F)n1` [Example 102, 5-(2,7-diazatricyclo[4.4.0.0~3,8~]dec-2-yl)-N-[1-methyl-3-(trifluoromethyl)-1H-pyrazol-4-yl]pyrazolo[1,5-a]pyrimidine-3-carboxamide trifluoroacetate], the IC50 stood at 0.163 µM.
For `O=C(Nc1ccccc1I)c1cnn2ccc(N3CC4CCC3CN4)nc12` (centres unmarked) [Example 103, 5-(2,5-diazabicyclo[2.2.2]oct-2-yl)-N-(2-iodophenyl)pyrazolo[1,5-a]pyrimidine-3-carboxamide trifluoroacetate], the IC50 came to 6.06 µM.
As for `N[C@H]1CCCC[C@H]1Nc1ccn2ncc(C(=O)Nc3ccccc3Cl)c2n1` [Example 104, 5-{[(1R,2)S-2-aminocyclohexyl]amino}-N-(2-chlorophenyl)pyrazolo[1,5-a]pyrimidine-3-carboxamide trifluoroacetate], the IC50 worked out at 0.001 µM.
Turning to `O=C(Nc1ccccc1Cl)c1cnn2ccc(N3CCCNCC3)nc12` [Example 105, N-(2-chlorophenyl)-5-(1,4-diazepan-1-yl)pyrazolo[1,5-a]pyrimidine-3-carboxamide trifluoroacetate], the IC50 turned out to be 1.27 µM.
For `N[C@@H]1[C@H](Nc2ccn3ncc(C(=O)Nc4ccccc4Cl)c3n2)CCCC1(F)F` [Example 106, 5-{[(1R,2R)-2-amino-3,3-difluorocyclohexyl]amino}-N-(2-chlorophenyl)pyrazolo[1,5-a]pyrimidine-3-carboxamide trifluoroacetate], the IC50 came to 0.788 µM.
Under `O=C(Nc1ccccc1Cl)c1cnn2ccc(N3CC4CCC3CN4)nc12` (centres unmarked) [Example 107, N-(2-chlorophenyl)-5-(2,5-diazabicyclo[2.2.2]oct-2-yl)pyrazolo[1,5-a]pyrimidine-3-carboxamide trifluoroacetate] stands 0.521 µM; under `N[C@@H]1[C@H](Nc2ccn3ncc(C(=O)Nc4ccccc4Br)c3n2)CCCC1(F)F` [Example 108, 5-{[(1R,2R)-2-amino-3,3-difluorocyclohexyl]amino}-N-(2-bromophenyl)pyrazolo[1,5-a]pyrimidine-3-carboxamide trifluoroacetate], 1.89 µM.
As to `O=C(Nc1ccccc1Br)c1cnn2ccc(N3CCCNCC3)nc12` [Example 109, N-(2-bromophenyl)-5-(1,4-diazepan-1-yl)pyrazolo[1,5-a]pyrimidine-3-carboxamide trifluoroacetate], the IC50 was 3.36 µM.
With `N#Cc1sccc1NC(=O)c1cnn2ccc(N3CC4CCC3CN4)nc12` (centres unmarked) [Example 110, N-(2-cyanothiophen-3-yl)-5-(2,5-diazabicyclo[2.2.2]oct-2-yl)pyrazolo[1,5-a]pyrimidine-3-carboxamide trifluoroacetate], the IC50 stood at 0.193 µM.
`N#Cc1sccc1NC(=O)c1cnn2ccc(N3CCCNCC3)nc12` [Example 111, N-(2-cyanothiophen-3-yl)-5-(1,4-diazepan-1-yl)pyrazolo[1,5-a]pyrimidine-3-carboxamide trifluoroacetate]: the IC50 came to 0.464 µM.
Next, `O=C(Nc1ccccc1Br)c1cnn2ccc(N3CC4CCC3CN4)nc12` (centres unmarked) [Example 112, N-(2-bromophenyl)-5-(2,5-diazabicyclo[2.2.2]oct-2-yl)pyrazolo[1,5-a]pyrimidine-3-carboxamide trifluoroacetate]: 0.955 µM; `N[C@H]1CCCC[C@H]1Nc1ccn2ncc(C(=O)Nc3ccccc3Br)c2n1` [Example 113, 5-{[(1R,2S)-2-aminocyclohexyl]amino}-N-(2-bromophenyl)pyrazolo[1,5-a]pyrimidine-3-carboxamide trifluoroacetate]: 0.002 µM.
Next, `N[C@@H]1[C@H](Nc2ccn3ncc(C(=O)Nc4ccccc4C(F)(F)F)c3n2)CCCC1(F)F` [Example 114, 5-{[(1R,2R)-2-amino-3,3-difluorocyclohexyl]amino}-N-[2-(trifluoromethyl)phenyl] pyrazolo[1,5-a]pyrimidine-3-carboxamide trifluoroacetate]: 3.82 µM; `O=C(Nc1ccccc1C(F)(F)F)c1cnn2ccc(N3CC4CCC3CN4)nc12` (centres unmarked) [Example 115, 5-(2,5-diazabicyclo[2.2.2]oct-2-yl)-N-[2-(trifluoromethyl)phenyl] pyraozlo[1,5-a]pyrimidine-3-carboxamide trifluoroacetate]: 5.6 µM; `N[C@H]1CCCC[C@H]1Nc1ccn2ncc(C(=O)Nc3ccsc3Cl)c2n1` [Example 116, 5-{[(1R,2S)-2-aminocyclohexyl]amino}-N-(2-chlorothiophen-3-yl)pyrazolo[1,5-a]pyrimidine-3-carboxamide trifluoroacetate]: 0.001 µM.
Regarding `O=C(Nc1ccsc1Cl)c1cnn2ccc(N3CCCNCC3)nc12` [Example 117, N-(2-chlorothiophen-3-yl)-5-(1,4-diazepan-1-yl)pyrazolo[1,5-a]pyrimidine-3-carboxamide trifluoroacetate], the IC50 is 0.403 µM.
For `N[C@@H]1[C@H](Nc2ccn3ncc(C(=O)Nc4ccsc4Cl)c3n2)CCCC1(F)F` [Example 118, 5-{[(1R,2R)-2-amino-3,3-difluorocyclohexyl]amino}-N-(2-chlorothiophen-3-yl)pyrazolo[1,5-a]pyrimidine-3-carboxamide trifluoroacetate], the IC50 came out at 0.342 µM.
In the case of `N[C@H]1CCCC[C@H]1Nc1ccn2ncc(C(=O)Nc3cscc3C(F)F)c2n1` [Example 119, 5-{[(1R,2S)-2-aminocyclohexyl]amino}-N-[4-(difluoromethyl)thiophen-3-yl]pyrazolo[1,5-a]pyrimidine-3-carboxamide trifluoroacetate], the IC50 was 0.0005 µM.
Under `O=C(Nc1cscc1C(F)F)c1cnn2ccc(N3CCCNCC3)nc12` [Example 120, 5-(1,4-diazepan-1-yl)-N-[4-(difluoromethyl)thiophen-3-yl]pyrazolo[1,5-a]pyrimidine-3-carboxamide trifluoroacetate] stands 0.084 µM.
On to `N[C@@H]1[C@H](Nc2ccn3ncc(C(=O)Nc4cscc4C(F)F)c3n2)CCCC1(F)F` [Example 121, 5-{[(1R,2R)-2-amino-3,3-difluorocyclohexyl]amino}-N-[4-(difluoromethyl)thiophen-3-yl]pyrazolo[1,5-a]pyrimidine-3-carboxamide trifluoroacetate], for which the IC50 was found to be 0.124 µM.
As to `N[C@@H]1[C@H](Nc2ccn3ncc(C(=O)Nc4cscc4Br)c3n2)CCCC1(F)F` [Example 122, 5-{[(1R,2R)-2-amino-3,3-difluorocyclohexyl]amino}-N-(4-bromothiophen-3-yl)pyrazolo[1,5-a]pyrimidine-3-carboxamide trifluoroacetate], the IC50 stood at 1.15 µM.
Next, `O=C(Nc1cscc1Br)c1cnn2ccc(N3CCCNCC3)nc12` [Example 123, N-(4-bromothiophen-3-yl)-5-(1,4-diazepan-1-yl)pyrazolo[1,5-a]pyrimidine-3-carboxamide trifluoroacetate]: 0.389 µM; `O=C(Nc1cscc1Br)c1cnn2ccc(N3CC4CCC3CN4)nc12` (centres unmarked) [Example 124, N-(4-bromothiophen-3-yl)-5-(2,5-diazabicyclo[2.2.2]oct-2-yl)pyrazolo[1,5-a]pyrimidine-3-carboxamide trifluoroacetate]: 0.245 µM.
Take `Cn1cc(NC(=O)c2cnn3ccc(N4CCCNCC4)nc23)c(C#N)n1` [Example 125, N-(3-cyano-1-methyl-1H-pyrazol-4-yl)-5-(1,4-diazepan-1-yl)pyrazolo[1,5-a]pyrimidine-3-carboxamide trifluoroacetate]: the IC50 was 0.119 µM.
Under `Cn1cc(NC(=O)c2cnn3ccc(N[C@@H]4CCCC(F)(F)[C@@H]4N)nc23)c(C#N)n1` [Example 126, 5-{[(1R,2R)-2-amino-3,3-difluorocyclohexyl]amino}-N-(3-cyano-1-methyl-1H-pyrazol-4-yl)pyrazolo[1,5-a]pyrimidine-3-carboxamide trifluoroacetate] stands 0.07 µM; under `O=C(Nc1ccsc1Br)c1cnn2ccc(N3CCCNCC3)nc12` [Example 127, N-(2-bromothiophen-3-yl)-5-(1,4-diazepan-1-yl)pyrazolo[1,5-a]pyrimidine-3-carboxamide trifluoroacetate], 0.419 µM.
Under `N[C@@H]1[C@H](Nc2ccn3ncc(C(=O)Nc4ccsc4Br)c3n2)CCCC1(F)F` [Example 128, 5-{[(1R,2R)-2-amino-3,3-difluorocyclohexyl]amino}-N-(2-bromothiophen-3-yl)pyrazolo[1,5-a]pyrimidine-3-carboxamide trifluoroacetate] stands 1.25 µM; under `N[C@H]1CCCC[C@H]1Nc1ccn2ncc(C(=O)Nc3ccsc3Br)c2n1` [Example 129, 5-{[(1R,2S)-2-aminocyclohexyl]amino}-N-(2-bromothiophen-3-yl)pyrazolo[1,5-a]pyrimidine-3-carboxamide trifluoroacetate], 0.002 µM; under `O=C(Nc1ccccc1C(F)F)c1cnn2ccc(N3CCCNCC3)nc12` [Example 130, 5-(1,4-diazepan-1-yl)-N-[2-(difluoromethyl)phenyl] pyrazolo[1,5-a]pyrimidine-3-carboxamide], 8.81 µM.
Next, `N[C@H]1CCCC[C@H]1Nc1ccn2ncc(C(=O)Nc3ccccc3C(F)F)c2n1` [Example 131, 5-{[(1R,2S)-2-aminocyclohexyl]amino}-N-[2-(difluoromethyl)phenyl] pyrazolo[1,5-a]pyrimidine-3-carboxamide trifluoroacetate]: 0.008 µM.
Consider `N[C@@H]1[C@H](Nc2ccn3ncc(C(=O)Nc4ccccc4C(F)F)c3n2)CCCC1(F)F` [Example 132, 5-{[(1R,2R)-2-amino-3,3-difluorocyclohexyl]amino}-N-[2-(difluoromethyl)phenyl] pyrazolo[1,5-a]pyrimidine-3-carboxamide trifluoroacetate], for which the IC50 stood at 2.1 µM.
Under `N#Cc1sccc1NC(=O)c1cnn2ccc(N[C@@H]3CCCC(F)(F)[C@@H]3N)nc12` [Example 133, 5-{[(1R,2R)-2-amino-3,3-difluorocyclohexyl]amino}-N-(2-cyanothiophen-3-yl)pyrazolo[1,5-a]pyrimidine-3-carboxamide trifluoroacetate] stands 0.095 µM.

(Values after patent US10329294B2, “Pyrazolopyrimidine inhibitors of IRAK4 activity” (MERCK SHARP & DOHME CORP., priority 2015, dated 2019).)
